Reference: patent US11692160B2, “Microfluidic chip, three-dimensional channel structure, cell culture method using same, and activity evaluation method of bioactive substance using same” (THE ASAN FOUNDATION, priority 2016, dated 2023)

How the values were obtained:
lung cancer cells (A549) = assay: Evaluation of the pharmacological efficacy of an MMP-1 inhibitor using a microfluidic chip (lung cancer cell travel distance, vascular cell migration area); assay type: cell-based
Description: In order to evaluate the efficacy of an anticancer medicine using a microfluidic chip, lung cancer cells (A549, ATCC) were seeded into a microfluidic chip using the same method as in Example 1. Secondarily, vascular cells were seeded (day 0).

[1] = system: pancreatic cancer cells (Mia Paca-2); assay: Evaluation of the pharmacological efficacy of gemcitabine using a microfluidic chip (spread range of cancer cells); assay type: cell-based
Description: In order to evaluate the efficacy of an anticancer medicine using a microfluidic chip, pancreatic cancer cells (Mia Paca-2, ATCC) were seeded into a microfluidic chip using the same method as in Example 2. Secondarily, vascular cells (HUVEC, purchased from ATCC) were seeded. Once the cells were confirmed to be attached (day 0: cell seeding date), gemcitabine (Eli Lilly and Company, USA) was administered 3 days later to measure the spread range of the cancer cells. As shown in FIGS. 20A to 20C, the growth and development of cells were observed from the time of cell seeding (day 0) to the 7th day after the drug treatment (day 3). For observation of the cells, an optical microscope image (EVOS, LifeScience, 100 magnification) and a fluorescence microscope image (EVOS, LifeScience, 100 magnification) were superposed. FIGS. 20B and 20C show the results of observation of the cell development using an optical microscope and a fluorescence microscope. The eight images of FIG. 20B, labeled as normal cultures, were those treated with DMSO at day 3 and observed up to day 7. The eight pictures of FIG. 20C, labeled drug treatment, were those treated with gemcitabine on day 3 and observed up to day 7. FIG. 20A is a graph in which the growth width of the cancer cells was statistically quantified from FIGS. 20B and 20C using an Origin […] […]

[2] = A549 with vascular cells in microfluidic chip, inhibitor given 1 day after seeding, increasing concentration (10 μM, 50 μM, 100 μM)

Compound	metastatic process of lung cancer cells (lung cancer cells (A549); A549 cultured in the cell culture device (microfluidic chip))	migration area of the vascular cells (lung cancer cells (A549); [2])	travel distance of the lung cancer cells (lung cancer cells (A549); [2])	distribution area of the cancer cells ([1]; Mia Paca-2 co-seeded with HUVEC in microfluidic chip, drug on day 3, observed up to day 7, compared with cells not treated with gemcitabine (DMSO))	growth of pancreatic cancer cells ([1]; Mia Paca-2 in microfluidic chip, gemcitabine on day 3, observed up to day 7)
CNC(=O)[C@H](Cc1c[nH]c2ccccc12)NC(=O)[C@@H](CC(=O)NO)CC(C)C [MMP-1 inhibitor]	inhibits the metastatic process of lung cancer cells	reduced	gradually reduced		
Nc1ccn([C@@H]2O[C@H](CO)[C@@H](O)C2(F)F)c(=O)n1 [gemcitabine, 4-amino-1-(2-deoxy-2,2-difluoro-β-D-erythro-pentofuranosyl)pyrimidin-2(1H)-on]				decreased	inhibits the growth of pancreatic cancer cells
